Reference: the NIST ThermoML archive (doi:10.1021/acs.jced.5b00317)

Test: cn = amount concentration of the nth substance listed, in mol/dm3
Settings: 101 kPa, Liquid; for speed of sound: Sing-around technique in a fixed-path interferometer; for mass density: Vibrating tube method

[Cl-].[Na+] [sodium chloride] + O
Settings	mass density [kg/m3]	speed of sound [m/s]
298.15 K, c1 = 0.0251	998.068	–
298.15 K, c1 = 0.0586	999.427	1501.1
298.15 K, c1 = 0.1021	1001.16	1503.8
298.15 K, c1 = 0.1483	1002.99	1506.4
298.15 K, c1 = 0.2047	1005.19	1509.4
298.15 K, c1 = 0.2543	1007.12	1511.8
303.15 K, c1 = 0.0251	996.654	1511.3
303.15 K, c1 = 0.0586	997.998	1513.4
303.15 K, c1 = 0.1021	999.715	1516
303.15 K, c1 = 0.1483	1001.52	1518.5
303.15 K, c1 = 0.2047	1003.7	1521.4
303.15 K, c1 = 0.2543	1005.61	1523.6
308.15 K, c1 = 0.0251	995.026	1521.9
308.15 K, c1 = 0.0586	996.357	1524
308.15 K, c1 = 0.1021	998.056	1526.5
308.15 K, c1 = 0.1483	999.851	1528.9
308.15 K, c1 = 0.2047	1002.01	1531.6
308.15 K, c1 = 0.2543	1003.9	1533.7
313.15 K, c1 = 0.0251	993.201	1531
313.15 K, c1 = 0.0586	994.523	–
313.15 K, c1 = 0.1021	996.208	1535.5
313.15 K, c1 = 0.1483	997.991	1537.8
313.15 K, c1 = 0.2047	1000.14	1540.3
313.15 K, c1 = 0.2543	1002.01	1542.3
318.15 K, c1 = 0.0251	991.192	1538.5
318.15 K, c1 = 0.0586	992.506	1540.5
318.15 K, c1 = 0.1021	994.181	1542.8
318.15 K, c1 = 0.1483	995.954	1545.1
318.15 K, c1 = 0.2047	998.089	1547.6
318.15 K, c1 = 0.2543	999.952	–
323.15 K, c1 = 0.0251	989.012	1544.6
323.15 K, c1 = 0.0586	990.317	1546.5
323.15 K, c1 = 0.1021	991.983	–
323.15 K, c1 = 0.1483	993.747	1551
323.15 K, c1 = 0.2047	995.872	1553.4
323.15 K, c1 = 0.2543	997.725	1555.2
